According to patent US20100076015A1, “Aminopyridine Derivatives” (VANTIA LIMITED, priority 2008, published 2010):

target: T1, Human KLK1 (Homo sapiens, UniProt P06870); test: Determination of the IC50 for KLK1 (fluorogenic substrate H-DVal-Leu-Arg-AFC); format: biochemical; conditions: 37° C.
T1 construct: purchased Callbiochem (Calbiochem)
Procedure, shortened: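 Test compound at various concentrations was incubated with human KLK1 and the fluorogenic substrate H-DVal-Leu-Arg-AFC at 37° C. Absorbance change at 410 nm gave the initial reaction rate, from which IC50 was obtained.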

T1 sequence (P06870 25-262): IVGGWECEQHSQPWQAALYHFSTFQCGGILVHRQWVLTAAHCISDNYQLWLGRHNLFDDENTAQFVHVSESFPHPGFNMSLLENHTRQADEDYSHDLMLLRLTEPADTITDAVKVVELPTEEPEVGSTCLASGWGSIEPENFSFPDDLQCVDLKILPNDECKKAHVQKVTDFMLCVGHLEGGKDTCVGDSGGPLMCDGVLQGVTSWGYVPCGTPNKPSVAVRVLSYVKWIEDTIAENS

IC50 [nM]	Compound
14.5	CN1CCC[C@@H]1C(=O)N[C@@H](Cc1c[nH]c2ccccc12)C(=O)NCc1ccc(N)nc1 [Example 113, (R)-1-Methyl-pyrrolidine-2-carboxylic acid [(S)-1-[(6-amino-pyridin-3-ylmethyl)-carbamoyl]-2-(1H-indol-3-yl)-ethyl]-amide]
5.4	CCN(CC)C(C)C(=O)N(C)C(CC1CCCCC1)C(=O)NCc1ccc(N)nc1 [Example 438, S)—N-{(S)-1-[(6-Amino-pyridin-3-ylmethyl)-carbamoyl]-2-cyclohexyl-ethyl}-2-diethylamino-N-methyl-propionamide]
42.9	CCN(CC)[C@@H](CO)C(=O)N[C@@H](CC1CCCCC1)C(=O)NCc1ccc(N)nc1 [Example 389, (S)—N-{(S)-1-[(6-Amino-pyridin-3-ylmethyl)-carbamoyl]-2-cyclohexyl-ethyl}-2-diethylamino-3-hydroxy-propionamide]
5.2	Cc1cc(C)c(C(=O)N[C@@H](Cc2ccc(F)c(F)c2)C(=O)NCc2ccc(N)nc2C)[nH]1 [Example 284, 3,5-Dimethyl-1H-pyrrole-2-carboxylic acid [(S)-1-[(6-amino-2-methyl-pyridin-3-ylmethyl)-carbamoyl]-2-(3,4-difluoro-phenyl)-ethyl]-amide]
85.4	COc1ccc2[nH]c(C(=O)N[C@@H](Cc3ccc(Cl)c(Cl)c3)C(=O)NCc3ccc(N)nc3C)cc2c1 [Example 321, 5-Methoxy-1H-indole-2-carboxylic acid [(S)-1-[(6-amino-2-methyl-pyridin-3-ylmethyl)-carbamoyl]-2-(3,4-dichloro-phenyl)-ethyl]-amide]
128	Cc1cc(C)c(C(=O)N[C@@H](Cc2c(F)c(F)c(F)c(F)c2F)C(=O)NCc2ccc(N)nc2)[nH]1 [Example 251, 3,5-Dimethyl-1H-pyrrole-2-carboxylic acid {(S)-1-[(6-amino-pyridin-3-ylmethyl)-carbamoyl]-2-pentafluorophenyl-ethyl}-amide]
0.7	Nc1ccc(CNC(=O)[C@H](Cc2ccc(Cl)c(Cl)c2)NC(=O)[C@H]2CCCN2)cn1 [Example 55, (R)-Pyrrolidine-2-carboxylic acid [(S)-1-[(6-amino-pyridin-3-ylmethyl)-carbamoyl]-2-(3,4-dichloro-phenyl)-ethyl]-amide]
80.6	CC(C)N(C)CC(=O)N[C@@H](Cc1ccc(F)c(F)c1)C(=O)NCc1ccc(N)nc1 [Example 156, (S)—N-(6-Amino-pyridin-3-ylmethyl)-3-(3,4-difluoro-phenyl)-2-[2-(isopropyl-methyl-amino)-acetylamino]-propionamide]
56.5	CN(CC(=O)N[C@@H](Cc1ccc(F)c(F)c1)C(=O)NCc1ccc(N)nc1)Cc1ccc(Cl)cc1 [Example 163, (S)—N-(6-Amino-pyridin-3-ylmethyl)-2-{2-[(4-chloro-benzyl)-methyl-amino]-acetylamino}-3-(3,4-difluoro-phenyl)-propionamide]
9.3	CC(C)N1CCC[C@@H]1C(=O)N[C@@H](Cc1ccccc1Cl)C(=O)NCc1ccc(N)nc1 [Example 126, (R)-1-Isopropyl-pyrrolidine-2-carboxylic acid [(S)-1-[(6-amino-pyridin-3-ylmethyl)-carbamoyl]-2-(2-chloro-phenyl)-ethyl]-amide]
3.7	CCCN1CCC[C@@H]1C(=O)N[C@@H](Cc1ccc(F)cc1)C(=O)NCc1ccc(N)nc1 [Example 139, (R)-1-Propyl-pyrrolidine-2-carboxylic acid [(S)-1-[(6-amino-pyridin-3-ylmethyl)-carbamoyl]-2-(4-fluoro-phenyl)-ethyl]-amide]
9.2	CCC(C)[C@@H](N)C(=O)N[C@@H](Cc1cc(F)c(F)cc1F)C(=O)NCc1ccc(N)nc1 (stereo partly drawn) [Example 38, (R)-2-Amino-3-methyl-pentanoic acid [(S)-1-[(6-amino-pyridin-3-ylmethyl)-carbamoyl]-2-(2,4,5-trifluoro-phenyl)-ethyl]-amide]
21.3	Nc1ccc(CNC(=O)[C@H](Cc2ccc(F)c(F)c2)NC(=O)c2cc3ccccc3[nH]2)cn1 [Example 325, 1H-Indole-2-carboxylic acid [(S)-1-[(6-amino-pyridin-3-ylmethyl)-carbamoyl]-2-(3,4-difluoro-phenyl)-ethyl]-amide]
185	Nc1ccc(CNC(=O)[C@H](Cc2ccc(F)c(F)c2)NC(=O)CNCCc2ccccc2)cn1 [Example 160, (S)—N-(6-Amino-pyridin-3-ylmethyl)-3-(3,4-difluoro-phenyl)-2-(2-phenethylamino-acetylamino)-propionamide]
14.7	Cc1cccc(C[C@H](NC(=O)c2cc3ccccc3[nH]2)C(=O)NCc2ccc(N)nc2)c1 [Example 317, 1H-Indole-2-carboxylic acid {(S)-1-[(6-amino-pyridin-3-ylmethyl)-carbamoyl]-2-m-tolyl-ethyl}-amide]
50.5	CNCC(=O)N[C@@H](C(=O)NCc1ccc(N)nc1)C(C1CCCCC1)C1CCCCC1 [Example 221, (R)—N-(6-Amino-pyridin-3-ylmethyl)-3,3-dicyclohexyl-2-(2-methylamino-acetylamino)-propionamide]

IC50 [nM]	Compound
8.8	CN(C)[C@@H](Cc1ccccc1)C(=O)N[C@@H](Cc1ccc(F)c(F)c1)C(=O)NCc1ccc(N)nc1 [Example 351, (S)—N-[(S)-1-[(6-Amino-pyridin-3-ylmethyl)-carbamoyl]-2-(3,4-difluoro-phenyl)-ethyl]-2-dimethylamino-3-phenyl-propionamide]
20.2	CC(C)N(C)[C@@H](CO)C(=O)N[C@@H](Cc1ccc(F)c(F)c1)C(=O)NCc1ccc(N)nc1 [Example 360, (S)—N-[(S)-1-[(6-Amino-pyridin-3-ylmethyl)-carbamoyl]-2-(3,4-difluoro-phenyl)-ethyl]-3-hydroxy-2-(isopropyl-methyl-amino)-propionamide]
4.5	Cc1cc(C)c(C(=O)N[C@@H](Cc2cccc(Cl)c2)C(=O)NCc2ccc(N)nc2C)[nH]1 [Example 279, 3,5-Dimethyl-1H-pyrrole-2-carboxylic acid [(S)-1-[(6-amino-2-methyl-pyridin-3-ylmethyl)-carbamoyl]-2-(3-chloro-phenyl)-ethyl]-amide]
24.1	CN1CCC[C@@H]1C(=O)N[C@@H](Cc1ccccc1)C(=O)NCc1ccc(N)nc1 [Example 101, (R)-1-Methyl-pyrrolidine-2-carboxylic acid {(S)-1-[(6-amino-pyridin-3-ylmethyl)-carbamoyl]-2-phenyl-ethyl}-amide]
192	Cc1ccc(-c2ccc(C(=O)N[C@@H](Cc3ccccc3Cl)C(=O)NCc3ccc(N)nc3)[nH]2)cc1 [Example 295, 5-p-Tolyl-1H-pyrrole-2-carboxylic acid [(S)-1-[(6-amino-pyridin-3-ylmethyl)-carbamoyl]-2-(2-chloro-phenyl)-ethyl]-amide]
46.5	Nc1ccc(CNC(=O)[C@H](Cc2cccc(F)c2)NC(=O)c2cc3ccccc3[nH]2)cn1 [Example 311, 1H-Indole-2-carboxylic acid [(S)-1-[(6-amino-pyridin-3-ylmethyl)-carbamoyl]-2-(3-fluoro-phenyl)-ethyl]-amide]
24.4	Cc1ccccc1C[C@H](NC(=O)[C@H]1CCCN1C)C(=O)NCc1ccc(N)nc1 [Example 104, (R)-1-Methyl-pyrrolidine-2-carboxylic acid {(S)-1-[(6-amino-pyridin-3-ylmethyl)-carbamoyl]-2-o-tolyl-ethyl}-amide]
76.7	COc1ccc2[nH]c(C(=O)N[C@@H](Cc3cccc(Cl)c3)C(=O)NCc3ccc(N)nc3C)cc2c1 [Example 316, 5-Methoxy-1H-indole-2-carboxylic acid [(S)-1-[(6-amino-2-methyl-pyridin-3-ylmethyl)-carbamoyl]-2-(3-chloro-phenyl)-ethyl]-amide]
258	CCCCN(C)CC(=O)N[C@@H](Cc1ccc(F)c(F)c1)C(=O)NCc1ccc(N)nc1 [Example 167, (S)—N-(6-Amino-pyridin-3-ylmethyl)-2-[2-(butyl-methyl-amino)-acetylamino]-3-(3,4-difluoro-phenyl)-propionamide]
26.9	CC(C)N(CC(=O)N[C@@H](CC1CCCCC1)C(=O)NCc1ccc(N)nc1)C(C)C [Example 393, (S)—N-(6-Amino-pyridin-3-ylmethyl)-3-cyclohexyl-2-(2-diisopropylamino-acetylamino)-propionamide]
1.3	CN1CCC[C@@H]1C(=O)N[C@@H](Cc1ccc(F)cc1)C(=O)NCc1ccc(N)nc1 [Example 98, (R)-1-Methyl-pyrrolidine-2-carboxylic acid [(S)-1-[(6-amino-pyridin-3-ylmethyl)-carbamoyl]-2-(4-fluoro-phenyl)-ethyl]-amide]
2	CC(C)N(C)[C@H](C)C(=O)N[C@@H](Cc1ccc(F)c(F)c1)C(=O)NCc1ccc(N)nc1 [Example 175, (R)—N-[(S)-1-[(6-Amino-pyridin-3-ylmethyl)-carbamoyl]-2-(3,4-difluoro-phenyl)-ethyl]-2-(isopropyl-methyl-amino)-propionamide]
1.1	Nc1ccc(CNC(=O)[C@H](Cc2cccc(C(F)(F)F)c2)NC(=O)[C@H](N)Cc2ccc(Cl)cc2)cn1 [Example 70, (R)-2-Amino-N-[(S)-1-[(6-amino-pyridin-3-ylmethyl)-carbamoyl]-2-(3-trifluoromethyl-phenyl)-ethyl]-3-(4-chloro-phenyl)-propionamide]
105	CCOc1ccc(C[C@H](NC(=O)c2[nH]c(C)cc2C)C(=O)NCc2ccc(N)nc2)cc1 [Example 255, 3,5-Dimethyl-1H-pyrrole-2-carboxylic acid [(S)-1-[(6-amino-pyridin-3-ylmethyl)-carbamoyl]-2-(4-ethoxy-phenyl)-ethyl]-amide]
45.9	CCCN(C)[C@@H](C)C(=O)N[C@@H](CC1CCCCC1)C(=O)NCc1ccc(N)nc1 [Example 383, (S)—N-{(S)-1-[(6-Amino-pyridin-3-ylmethyl)-carbamoyl]-2-cyclohexyl-ethyl}-2-(methyl-propyl-amino)-propionamide]
